In ChEMBL document CHEMBL1146935, “A novel series of urea-based peptidomimetic calpain inhibitors” (Bioorg Med Chem Lett, 2006):

Target: T1, Calpain-1 catalytic subunit (Sus scrofa, UniProt P35750)
T1 sequence (P35750 whole entry): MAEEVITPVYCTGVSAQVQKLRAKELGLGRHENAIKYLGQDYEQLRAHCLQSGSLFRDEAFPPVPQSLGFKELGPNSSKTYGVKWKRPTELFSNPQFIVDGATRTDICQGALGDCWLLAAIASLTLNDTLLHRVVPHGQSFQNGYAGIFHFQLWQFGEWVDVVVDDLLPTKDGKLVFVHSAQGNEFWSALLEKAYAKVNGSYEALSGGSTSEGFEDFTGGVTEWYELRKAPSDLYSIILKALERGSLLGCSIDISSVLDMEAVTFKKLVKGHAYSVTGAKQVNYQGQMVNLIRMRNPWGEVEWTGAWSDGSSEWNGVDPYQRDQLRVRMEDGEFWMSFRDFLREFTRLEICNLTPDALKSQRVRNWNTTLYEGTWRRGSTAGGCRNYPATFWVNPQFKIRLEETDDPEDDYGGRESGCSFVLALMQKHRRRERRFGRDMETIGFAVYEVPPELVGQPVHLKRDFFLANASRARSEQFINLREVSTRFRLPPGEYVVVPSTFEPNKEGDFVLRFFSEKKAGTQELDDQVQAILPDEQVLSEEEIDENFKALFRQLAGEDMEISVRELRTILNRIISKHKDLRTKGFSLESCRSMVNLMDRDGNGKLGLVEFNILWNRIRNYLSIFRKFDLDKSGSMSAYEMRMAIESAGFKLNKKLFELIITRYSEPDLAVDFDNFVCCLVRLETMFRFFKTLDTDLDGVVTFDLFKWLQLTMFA
Assay: Inhibition of mu calpain in porcine erythrocyte

SMILES | Ki
CC(C)CN(CCOCc1ccccc1)C(=O)NCC=O | 88700 nM
O=C[C@H](Cc1ccccc1)NC(=O)N(CCOCc1ccccc1)Cc1ccccc1 | 6650 nM
CCN(CCOCc1ccccc1)C(=O)N[C@H](C=O)Cc1ccccc1 | 1150 nM
CC(C)N(CCc1ccccc1)C(=O)N[C@H](C=O)Cc1ccccc1 | 2350 nM
CC(C)N(CCOCc1ccccc1)C(=O)N[C@H](C=O)Cc1ccccc1 | 230 nM
CC(C)CN(CCOCc1ccccc1)C(=O)N[C@H](C=O)C(C)C | 9270 nM
CN(CCOCc1ccccc1)C(=O)N[C@H](C=O)Cc1ccccc1 | 6690 nM
CC(C)N(CCCc1ccccc1)C(=O)N[C@H](C=O)Cc1ccccc1 | 1160 nM
CC(C)C(C(=O)N[C@H](C=O)Cc1ccccc1)C(=O)OCc1ccccc1 (some centres not stated) | 10 nM
CC(C)N(Cc1ccccc1)C(=O)N[C@H](C=O)Cc1ccccc1 | 6820 nM
CC(C)CN(CCOCc1ccccc1)C(=O)N[C@H](C=O)Cc1ccccc1 | 150 nM
CC(C)CC(C(=O)N[C@H](C=O)Cc1ccccc1)C(=O)OCc1ccccc1 (some centres not stated) | 15 nM
CC(C)N(CCCCc1ccccc1)C(=O)N[C@H](C=O)Cc1ccccc1 | 400 nM

Species: Sus scrofa
Assay: Inhibition of mu calpain in porcine erythrocyte at 100 uM

SMILES | inhibition
CC(C)NC(=O)N[C@H](C=O)Cc1ccccc1 | 13%

Target: Cathepsin B (Homo sapiens, UniProt P07858)
Assay: Inhibition of cathepsin B from human brain

SMILES | Ki
CC(C)N(CCOCc1ccccc1)C(=O)N[C@H](C=O)Cc1ccccc1 | 22.1 µM
CC(C)C(C(=O)N[C@H](C=O)Cc1ccccc1)C(=O)OCc1ccccc1 (some centres not stated) | 0.02 µM
CC(C)CN(CCOCc1ccccc1)C(=O)N[C@H](C=O)Cc1ccccc1 | 33.3 µM
CC(C)CC(C(=O)N[C@H](C=O)Cc1ccccc1)C(=O)OCc1ccccc1 (some centres not stated) | 0.12 µM

Tested on: not listed separately
Assay: Selectivity for porcine mu calpain over human cathepsin B

SMILES | Ratio Ki
CC(C)N(CCOCc1ccccc1)C(=O)N[C@H](C=O)Cc1ccccc1 | 96.1
CC(C)C(C(=O)N[C@H](C=O)Cc1ccccc1)C(=O)OCc1ccccc1 (some centres not stated) | 2
CC(C)CN(CCOCc1ccccc1)C(=O)N[C@H](C=O)Cc1ccccc1 | 222
CC(C)CC(C(=O)N[C@H](C=O)Cc1ccccc1)C(=O)OCc1ccccc1 (some centres not stated) | 8
